# Assay results published in patent publication US20090258840A1, “METHOD AND COMPOSITIONS FOR TREATING HEMATOLOGICAL MALIGNANCIES” (Gilead Sciences, Inc., priority 2006, published 2009).
# Read-outs that look alike come from different tables or passages of the source.
# Assays:
# [1] = dog, in vivo
# Procedure: • Dogs were administered various prodrugs of cpr-PMEDAP as 0.2 mg/kg 30 minute IV infusions. […] Alanine was the L isomer. • Blood was collected into potassium EDTA and separated by centrifugation. Primary blood mononuclear cells (PBMCs) were collected using CPT tubes (sodium citrate). • For analysis, plasma samples were precipitated by addition of 100 μL acetonitrile containing internal standards (D4AP and TDF) to 100 μL of plasma for prodrug analysis. After protein precipitation by centrifugation, 100 μL was transferred into another tube to be dried and then reconstituted in 100 μL water with 0.2% formic acid. An aliquot of 20 μL was injected onto the column for LC/MS/MS analysis. Analysis was done using a 150×2.0 mm, 4 μm Synergi Fusion-RP 80A column (Phenomenex) and a multistage linear gradient from 0.5 to 99% acetonitrile in the presence of 0.2% formic acid at 0.25 mL/min. Analytes were detected using a Sciex API-4000 mass spectrometer using electrospray ionization in positive MRM mode. […] Separate aliquots of cells from each time point resuspended in 100% serum were used to establish the cell quantities in each sample. Cell samples were normalized to 15×10^6 cells per sample. […] 20 μL was injected for LC/MS/MS analysis using a 50×2.0 mm, 4 μm Synergi Hydro-RP 80A column (Phenomenex) and a multistage linear gradient from 0 to 95% acetonitrile in the presence of 0.2% formic acid at 1.0 mL/min. Analytes were detected using a Sciex API-4000 mass spectrometer using electrospray ionization in positive MRM mode. • After drying, samples for dephosphorylation were treated with 1 U of calf intestinal phosphatase (alkaline phosphotase, Sigma) for 2 h in manufacturer provided buffer. Samples were then adjusted to 60% acetonitrile dried and resuspended in 60% acetonitrile containing internal standards (TDF and D4AP) and analyzed for cpr-PMEDAP as described for direct PBMC analysis.
# [2] = system: PHA-blast (human T-cells); test: Anti-proliferation in human PHA-lymphoblasts (BrdU/XTT); type: cell-based; details: read-out: Anti-Proliferation EC50
# CEM (T-lymphoid) = test: Anti-proliferation in CEM cells; type: cell-based, human; details: read-out: Anti-Proliferation EC50
# Procedure: (§1) Compounds were tested using human and canine lymphoblasts (stimulated with a T-cell mitogen phytohaemagglutinin (PHA) or a B-cell mitogen pokeweed mitogen (PWM)), two T-lymphoid cell lines derived from patients with acute lymphocytic leukemia (CEM and Molt-4), two myeloid cell lines derived from patients with acute myelogenous leukemia (KG-1 and HL-60), two B-lymphoid cell lines derived from Burkitt's lymphoma (Daudi and Raji), a B-lymphoid cell line from non-Hodgkin's lymphoma (RL), a T-lymphoid cell line from cutaneous T-lymphoma (PM-1), and a monocytic cell line from histiocytic lymphoma (U937). Lymphoblasts (150,000 cells per microtiter well) and leukemia/lymphoma cell lines (30,000 cells per well) were incubated with 5-fold serial dilutions of compounds for 3 days.
# Molt 4 (T-lymphoid) = test: Anti-proliferation in Molt 4 cells; type: cell-based, human; details: read-out: Anti-Proliferation EC50
# Procedure: as §1
# KG-1 (Myeloid) = test: Anti-proliferation in KG-1 cells; type: cell-based, human; details: read-out: Anti-Proliferation EC50
# Procedure: as §1
# HL-60 (Myeloid) = test: Anti-proliferation in HL-60 cells; type: cell-based, human; details: read-out: Anti-Proliferation EC50
# Procedure: as §1
# RL (B-lymphoid) = test: Anti-proliferation in RL cells; type: cell-based; details: Homo sapiens, 72 h, 3 days incubation
# Procedure: as §1
# Daudi (B-lymphoid) = test: Anti-proliferation in Daudi cells; type: cell-based, human; details: 3 days incubation
# Procedure: as §1
# Raji (B-lymphoid) = test: Anti-proliferation in Raji cells; type: cell-based, human; details: 3 days incubation
# Procedure: as §1
# PM-1 (T-lymphoid) = test: Anti-proliferation in PM-1 cells; type: cell-based, human; details: read-out: Anti-Proliferation EC50
# Procedure: as §1
# U937 (Monocytic) = test: Anti-proliferation in U937 cells; type: cell-based, human; details: read-out: Anti-Proliferation EC50
# [3] = system: lymphoblasts and leukemia/lymphoma cell lines; test: Anti-proliferation, EC50 range over the cell panel; type: cell-based; details: range over a variety of lymphoblasts and leukemia/lymphoma cell lines
# Procedure: A variety of compounds that are used for treatment of hematologic malignancies were also tested, including a DNA polymerase inhibitor (ara-C), DNA polymerase/ribonucleotide reductase inhibitors (cladribine, clofarabine, fludarabine, gemcitabine), an adenosine deaminase inhibitor (deoxycoformycin), a DNA methylation inhibitor (decitabine), a […] (doxorubicin), and a mitosis inhibitor (vincristine). All compounds, with the exception of doxorubicin and vincristine, are nucleoside analogs; ara-C, gemcitabine, and decitabine are cytosine analogs and the rest are adenosine analogs. cpr-PMEDAP and PMEG can be considered adenosine and guanosine analogs, respectively. Compounds were tested using human and canine lymphoblasts (stimulated with a T-cell mitogen phytohaemagglutinin (PHA) or a B-cell mitogen pokeweed mitogen (PWM)), two T-lymphoid cell lines derived from patients with acute lymphocytic leukemia (CEM and Molt-4), two myeloid cell lines derived from patients with acute myelogenous leukemia (KG-1 and HL-60), two B-lymphoid cell lines derived from Burkitt's lymphoma (Daudi and Raji), a B-lymphoid cell line from non-Hodgkin's lymphoma (RL), a T-lymphoid cell line from cutaneous T-lymphoma (PM-1), and a monocytic cell line from histiocytic lymphoma (U937).
# Lymphoblasts (150,000 cells per microtiter well) and leukemia/lymphoma cell lines (30,000 cells per well) were incubated with 5-fold serial dilutions of compounds for 3 days. BrdU assay was performed as follows: Lymphoblasts were incubated with 5-fold serial dilutions of compounds in microtiter plates (150,000 cells per well) for 3 days. On Day 3, cells were labeled with 10 μM BrdU for 3 hrs and the amount of BrdU incorporated into cellular DNA was quantified by Enzyme-Linked Immunosorbent Assay (ELISA). Alternatively, cells were incubated with 1 mg/mL XTT reagent (sodium 3,3′-[1[(phenylamino) carbonyl]-3,4-tetrazolium]-bis(4-methoxy-6-nitro) benzene sulfonic acid hydrate) and 1% PMS (phenazine methosulfate) for 2 hrs, and color change (mitochondrial dehydrogenase reduces yellow-colored XTT to orange-colored formazan salt) was quantified. […] Assays were repeated 2-20 times, until the standard error of the mean (SEM) became smaller than 50% of the mean value.
# [4] = system: PWM-blast (human B-cells); test: Anti-proliferation in human PWM-lymphoblasts (BrdU/XTT); type: cell-based; details: B-cell, 72 h, 3 days incubation
# [5] = system: PHA-blast (canine T-cells); test: Anti-proliferation in canine PHA-lymphoblasts (BrdU/XTT); type: cell-based; details: Canis lupus familiaris, T-cell, 72 h, 3 days incubation
# [6] = system: PWM-blast (canine B-cells); test: Anti-proliferation in canine PWM-lymphoblasts (BrdU/XTT); type: cell-based; details: Canis lupus familiaris, B-cell, 72 h, 3 days incubation
# Hygroscopicity = type: physicochemical
# [7] = system: a variety of tumor cell lines; details: in vitro cell culture; cited from earlier work
# [8] = Homo sapiens, 72 h, CEM (T-lymphoid), 3 days incubation
# [9] = Homo sapiens, 72 h, Molt 4 (T-lymphoid), 3 days incubation
# [10] = Homo sapiens, 72 h, KG-1 (Myeloid), 3 days incubation
# [11] = Homo sapiens, 72 h, HL-60 (Myeloid), 3 days incubation
# [12] = Homo sapiens, 72 h, PM-1 (T-lymphoid), 3 days incubation
# [13] = Homo sapiens, U-937, 72 h, U937 (Monocytic), 3 days incubation
# [14] = T-cell, 72 h, PHA-blast (human T-cells), 3 days incubation
# [15] = PHA-blast (human T-cells), 3 days incubation
# [16] = CEM (T-lymphoid), 3 days incubation
# [17] = Molt 4 (T-lymphoid), 3 days incubation
# [18] = KG-1 (Myeloid), 3 days incubation
# [19] = HL-60 (Myeloid), 3 days incubation
# [20] = PM-1 (T-lymphoid), 3 days incubation
# [21] = U937 (Monocytic), 3 days incubation
SMILES,"EC50 ([2]; Homo sapiens, T-cell, 72 h) [µM]",EC50 (CEM (T-lymphoid); [8]) [µM],EC50 (Molt 4 (T-lymphoid); [9]) [µM],EC50 (KG-1 (Myeloid); [10]) [µM],EC50 (HL-60 (Myeloid); [11]) [µM],EC50 (RL (B-lymphoid)) [µM],"EC50 (Daudi (B-lymphoid); Homo sapiens, 72 h) [µM]","EC50 (Raji (B-lymphoid); Homo sapiens, 72 h) [µM]",EC50 (PM-1 (T-lymphoid); [12]) [µM],EC50 (U937 (Monocytic); [13]) [µM],EC50 [3] [µM],other results
"C[C@H](NP(=O)(COCCn1cnc2c(NC3CC3)nc(N)nc21)Oc1ccccc1)C(=O)OC(C)(C)C (single isomer, unassigned) [MonoAlatBu(A)]",,,,,,,,,,,,PBMC to Plasma ratio [1]: 19
"Nc1ccn([C@@H]2O[C@H](CO)[C@@H](O)[C@@H]2O)c(=O)n1 [Ara-C, Cytarabine]",1.82,0.143,0.023,0.056,0.212,0.61,0.209,0.023,0.194,0.038,0.023 to 1.82,
CC(C)OC(=O)[C@H](C)NP(=O)(COCCn1cnc2c(NC3CC3)nc(N)nc21)N[C@@H](C)C(=O)OC(C)C [BisAlaiPr],,,,,,,,,,,,PBMC to Plasma ratio [1]: 1.2
Nc1nc(Cl)nc2c1ncn2[C@H]1C[C@H](O)[C@@H](CO)O1 [Cladribine],0.296,1.17,0.074,0.089,0.05,0.004,0.525,0.012,0.04,0.02,,
Nc1nc(Cl)nc2c1ncn2[C@@H]1O[C@H](CO)[C@@H](O)[C@@H]1F [Clofarabine],0.062,0.418,0.025,0.06,0.073,0.0495,0.221,0.0194,0.145,0.037,0.025 to 0.418,EC50 [4]: 0.126 µM; EC50 [5]: 0.146 µM; EC50 [6]: 0.093 µM
CCOC(=O)C(C)NP(=O)(COCCn1cnc2c(NC3CC3)nc(N)nc21)NC(C)C(=O)OCC (stereo not drawn) [Compound 1],,0.156,0.0273,1.04,0.214,0.078,0.027,0.089,0.125,0.394,0.027 to 1.04,"EC50 [2, 14]: 0.135 µM; EC50 [4]: 0.042 µM; EC50 [5]: 0.03 µM; EC50 [6]: 0.014 µM; hygroscopicity (Hygroscopicity): hygroscopic"
Nc1ncn([C@H]2C[C@H](O)[C@@H](CO)O2)c(=O)n1 [Decitabine],0.204,,,,,,,,,,,"EC50 (CEM (T-lymphoid); Homo sapiens, T-lymphoid, 72 h): 3 µM; EC50 (Molt 4 (T-lymphoid); Homo sapiens, MOLT-4, 72 h): 0.58 µM; EC50 (KG-1 (Myeloid); Homo sapiens, KG-1, 72 h): 0.083 µM; EC50 (HL-60 (Myeloid); Homo sapiens, HL-60, 72 h): 3.83 µM; EC50 (PM-1 (T-lymphoid); Homo sapiens, T-lymphoid, 72 h): > 20 µM; EC50 (U937 (Monocytic); Homo sapiens, U-937, 72 h): 0.077 µM"
OC[C@H]1O[C@@H](n2cnc3c2NC=NC[C@H]3O)C[C@@H]1O [Deoxy coformycin],> 200,,> 200,> 200,> 200,,,,,> 200,> 200,
COc1cccc2c1C(=O)c1c(O)c3c(c(O)c1C2=O)C[C@@](O)(C(=O)CO)C[C@@H]3O[C@H]1C[C@H](N)[C@H](O)[C@H](C)O1 [Doxorubicin],0.0076,,0.0012,0.028,0.024,0.025,0.0038,0.0086,0.0295,0.013,,
Nc1nc(F)nc2c1ncn2[C@@H]1O[C@H](CO)[C@@H](O)[C@@H]1O [Fludarabine des-phosphate],1.1,> 40,1.55,4.52,1.77,,,,12.9,0.3,,
"Nc1nc(NC2CC2)c2ncn(CCOCP(=O)(O)O)c2n1 [GS-8369, 9-(2-phosphonylmethoxyethyl)-N^6-cyclopropyl-2,6-diaminopurine]",,,,,,,,,,,,"EC50 [2, 15]: 2.35 µM; EC50 (CEM (T-lymphoid); [16]): 2.22 µM; EC50 (Molt 4 (T-lymphoid); [17]): 1.47 µM; EC50 (KG-1 (Myeloid); [18]): 1.11 µM; EC50 (HL-60 (Myeloid); [19]): 1.61 µM; EC50 (Daudi (B-lymphoid)): 1.84 µM; EC50 (PM-1 (T-lymphoid); [20]): 6.73 µM; EC50 (U937 (Monocytic); [21]): 4.48 µM; antiproliferative and differentiation-inducing effect [7]: effective"
Nc1ccn([C@@H]2O[C@H](CO)[C@@H](O)C2(F)F)c(=O)n1 [Gemcitabine],,0.021,0.0085,0.0057,0.0086,0.018,0.006,0.0034,0.016,0.031,0.0034 to 0.018,"EC50 [2, 14]: 0.0096 µM"
CC(C)OC(=O)[C@H](C)NP(=O)(COCCn1cnc2c(NC3CC3)nc(N)nc21)Oc1ccccc1 (stereo partly drawn) [MonoAlaiPr],,,,,,,,,,,,PBMC to Plasma ratio [1]: 17
C[C@H](NP(=O)(COCCn1cnc2c(NC3CC3)nc(N)nc21)Oc1ccccc1)C(=O)OC(C)(C)C (stereo partly drawn) [MonoAlatBu],,,,,,,,,,,,PBMC to Plasma ratio [1]: 12
"Nc1nc(N)c2ncn(CCOCP(=O)(O)O)c2n1 [PMEDAP, 9-(2-phosphonylmethoxyethyl)-2,6-diaminopurine]",,19.9,27.9,7.63,21.7,,14,24.9,22.7,24.4,,"EC50 [2, 14]: 8.95 µM"
"Nc1nc2c(ncn2CCOCP(=O)(O)O)c(=O)[nH]1 [PMEG, 9-(2-phosphonylmethoxyethyl)guanine]",,,,,,,,,,,,"EC50 [2, 15]: 1.68 µM; EC50 (CEM (T-lymphoid); [16]): 5.2 µM; EC50 (Molt 4 (T-lymphoid); [17]): 1.74 µM; EC50 (KG-1 (Myeloid); [18]): 2.93 µM; EC50 (HL-60 (Myeloid); [19]): 3.92 µM; EC50 (Daudi (B-lymphoid)): 0.994 µM; EC50 (Raji (B-lymphoid)): 2.72 µM; EC50 (PM-1 (T-lymphoid); [20]): 4.02 µM; EC50 (U937 (Monocytic); [21]): 4.01 µM"
CC[C@]1(O)C[C@H]2CN(CCc3c([nH]c4ccccc34)[C@@](C(=O)OC)(c3cc4c(cc3OC)N(C=O)[C@H]3[C@@](O)(C(=O)OC)[C@H](OC(C)=O)[C@]5(CC)C=CCN6CC[C@]43[C@@H]65)C2)C1 [Vincristine],,0.002,0.0004,0.0032,0.002,0.0014,0.0006,0.0025,0.0053,0.0028,0.0006 to 0.0053,"EC50 [2, 14]: 0.0024 µM; EC50 [4]: 0.0009 µM; EC50 [5]: 0.0009 µM; EC50 [6]: 0.0009 µM"
